Source: patent US6409809B1 (priority 1999, dated 2002)

Experiment: QUV accelerated weathering exposure test of painted aluminum panels (colour fading, CIE La*b*)
Assay type: physicochemical
Conditions: Study I, 48 weeks; 6 hr UV/6 hr condensation cycles; mildewcide level 2.0 (% as is); phthalocyanine blue acrylic paint
Procedure: An exposure test was conducted in two studies to determine the effect of weathering (UV exposure and/or condensation) on samples of panels with paints containing chlorothalonil, tetraconazole, and chlorothalonil/tetraconazole blend additives, respectively. The panels were aluminum having a 3003 alloy mill finish. One coating (6 mils thick when wet) of the selected paint was applied to each panel and allowed to air dry for 7 days at ambient temperature. Simulated weathering was performed by exposure of the panels to a QUV accelerated weathering tester providing UVA radiation at a power consumption of 1200 Watts (110 volts, 60 Hz). The exposure was conducted in alternating and repeating 6-hour cycles, one 6-hour cycle being an ultraviolet radiation exposure cycle (conducted at 80° C.), and the other cycle being a condensation cycle wherein the panels are exposed to moisture (conducted at 60°). The results are set forth below in Table I. CIE La*b* System describes a color space wherein ‘a’ is the green(−)/[…] axis. ‘L’ is lightness; ‘C’ is chroma or saturation.

## FC(F)C(F)(F)OCC(Cn1cncn1)c1ccc(Cl)cc1Cl (centres unmarked) [TCZ, Tetraconazole]
  DC vs. Blank: 1.02
  DL vs. Blank: −2.20
